Experimental data published in PubChem BioAssay (NCI).
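Following 48 hours of exposure in 96-well plates, responses at five concentrations were used to interpolate endpoints linearly. GI50 is the concentration that inhibits growth by half. TGI: concentration producing complete growth inhibition.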

Tests used:
Assay in all cases: NCI anticancer screen, dose series, 48 h
786-0 renal = test system: 786-0 renal
EKVX NSCLC = test system: EKVX NSCLC
HCT-15 colon = test system: HCT-15 colon
KM12 colon = test system: KM12 colon
MDA-MB-231 breast = test system: MDA-MB-231 breast
NCI-H23 lung = test system: NCI-H23 lung
RXF 393 renal = test system: RXF 393 renal
SNB-19 CNS = test system: SNB-19 CNS
T-47D breast = test system: T-47D breast
UACC-62 melanoma = test system: UACC-62 melanoma

SMILES	TGI (786-0 renal) [µM]	TGI (EKVX NSCLC) [µM]	TGI (HCT-15 colon) [µM]	TGI (KM12 colon) [µM]	TGI (MDA-MB-231 breast) [µM]	TGI (NCI-H23 lung) [µM]	TGI (RXF 393 renal) [µM]	TGI (SNB-19 CNS) [µM]	TGI (T-47D breast) [µM]	TGI (UACC-62 melanoma) [µM]	GI50 (EKVX NSCLC) [µM]	GI50 (HCT-15 colon) [µM]	GI50 (KM12 colon) [µM]	GI50 (MDA-MB-231 breast) [µM]	GI50 (NCI-H23 lung) [µM]	GI50 (RXF 393 renal) [µM]	GI50 (SNB-19 CNS) [µM]	GI50 (T-47D breast) [µM]	GI50 (UACC-62 melanoma) [µM]
CC(=O)[C@H]1CC[C@H]2[C@@H]3CCC4=CC(=O)CC[C@]4(C)[C@H]3CC[C@]12C	54.2	9.66	69.3	31.5	33.2	35.7	57.9	> 100	57.8	30.1									
NC(Cc1ccccc1)=NCC(=O)O	> 100	> 100	> 100	> 100	> 100	> 100	> 100	> 100	> 100	> 100									
O=C(O)CS(=O)c1ccc2c3c(cccc13)C(=O)c1ccccc1-2 (configuration not stated)	> 100	> 100	> 100	> 100	> 100	> 100	> 100	> 100	> 100	> 100									
Cc1ccc2ccc(=O)oc2c1	> 100	> 100		> 100	> 100	> 100	> 100		> 100	> 100									
O=C(Nc1ccc(-n2cc(-c3ccncc3)c(-c3ccc(O)c(Cl)c3)n2)cc1)c1cc(Cl)cc(Cl)c1		> 32.5	> 32.5	> 32.5	1.45	> 32.5	1.13	> 32.5	> 32.5	> 32.5	18.2	0.908	1.47	0.647	12.1	0.575	2.95	18.6	3.01
O=C(O)CCC(C(=O)O)N1C(=O)c2ccccc2C1=O (configuration not stated)	> 100	> 100	> 100	> 100	> 100	> 100	> 100	> 100	> 100	> 100									
CCOC(O)C(F)(F)F (configuration not stated)			> 100	> 100	> 100	> 100	> 100	> 100	> 100										
COc1cc(C(=O)O[C@H](C(=O)NCCNC(=O)[C@@H](OC(=O)c2cc(OC)cc3c(C)cccc23)[C@]2(C)CO2)[C@]2(C)CO2)c2cccc(C)c2c1		1.55	1.33	0.278		0.0987			3.48		0.21	0.179	0.0438		< 0.01		0.22	0.417	
O=C(Nc1ccc(Cl)cc1)c1cccc([N+](=O)[O-])c1O	> 56.7	14.8	> 88.3	> 62.4		6.55	6.67	> 50.9		17.6									
